{
  "source": "patent US9006228B2",
  "about": "(Merck Sharp & Dohme Corp., priority 2011, dated 2015)",
  "target": "T1, human GPR119 (Homo sapiens, UniProt Q8TDV5)",
  "T1 sequence (Q8TDV5 1-308 limits assumed)": "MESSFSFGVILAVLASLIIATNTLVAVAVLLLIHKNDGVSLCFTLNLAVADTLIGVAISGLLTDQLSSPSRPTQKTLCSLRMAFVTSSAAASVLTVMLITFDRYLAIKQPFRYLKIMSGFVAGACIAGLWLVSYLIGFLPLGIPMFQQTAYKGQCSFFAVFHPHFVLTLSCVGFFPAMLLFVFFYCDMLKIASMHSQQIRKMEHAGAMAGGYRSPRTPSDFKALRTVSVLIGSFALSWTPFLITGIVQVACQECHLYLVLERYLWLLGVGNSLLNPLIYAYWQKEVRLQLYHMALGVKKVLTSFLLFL",
  "assay": "Measurement of GPR119 signaling (cAMP assay; LANCE kit or HTRF) in HEK293 cells stably transfected with human GPR119",
  "format": "cell-based",
  "settings": "agonist-stimulated cAMP in HEK293 cells expressing human GPR119",
  "method_in_brief": "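LANCE method: cAMP detected with Eu-chelate/biotin-cAMP tracer, 3 h, read at 665 nm, converted via cAMP standards; basal from DMSO, maximum from internal agonist, 4-parameter fit.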",
  "data": [
    {"smiles": "CCCc1cnc(N2CCC([C@H]3C[C@H]3COCc3ccc(S(=O)(=O)CCO)cc3F)CC2)nc1", "note": "[Example 84]", "values": [
      {"measurement": "EC50", "result": 1.3, "unit": "nM"}
    ]},
    {"smiles": "O=S(=O)(CCO)c1ccc(COC[C@@H]2C[C@@H]2C2CCN(c3ncc(-c4ccoc4)cn3)CC2)c(F)c1", "note": "[Example 85, 2-[(3-fluoro-4-{[((1R,2R)-2-{1-[5-(3-furyl)pyrimidin-2-yl]piperidin-4-yl}cyclopropyl)methoxy]methyl}phenyl)sulfonyl]ethanol]", "values": [
      {"measurement": "EC50", "result": 3.8, "unit": "nM"}
    ]},
    {"smiles": "O=S(=O)(CCO)c1ccc(COC[C@@H]2C[C@@H]2C2CCN(c3ncc(Cl)cn3)CC2)nc1", "note": "[Example 86, 2-({6-[({(1R,2R)-2-[1-(5-chloropyrimidin-2-yl)piperidin-4-yl]cyclopropyl}methoxy)methyl]pyridin-3-yl}sulfonyl)ethanol]", "values": [
      {"measurement": "EC50", "result": 22, "unit": "nM"}
    ]},
    {"smiles": "O=S(=O)(CCO)c1ccc(COC[C@@H]2C[C@@H]2C2CCN(c3ncc(Br)cn3)CC2)nc1", "note": "[Example 87, 2-({6-[({(1R,2R)-2-[1-(5-bromopyrimidin-2-yl)piperidin-4-yl]cyclopropyl}methoxy)methyl]pyridin-3-yl}sulfonyl)ethanol]", "values": [
      {"measurement": "EC50", "result": 10.7, "unit": "nM"}
    ]},
    {"smiles": "CCc1cnc(N2CCC([C@H]3C[C@H]3COCc3ccc(S(=O)(=O)CCO)cn3)CC2)nc1", "note": "[Example 88, 2-({6-[({(1R,2R)-2-[1-(5-ethylpyrimidin-2-yl)piperidin-4-yl]cyclopropyl}methoxy)methyl]pyridin-3-yl}sulfonyl)ethanol]", "values": [
      {"measurement": "EC50", "result": 17, "unit": "nM"}
    ]},
    {"smiles": "CCCc1cnc(N2CCC([C@H]3C[C@H]3COCc3ccc(S(=O)(=O)CCO)cn3)CC2)nc1", "note": "[Example 89, 2-({6-[({(1R,2R)-2-[1-(5-propylpyrimidin-2-yl)piperidin-4-yl]cyclopropyl}methoxy)methyl]pyridin-3-yl}sulfonyl)ethanol]", "values": [
      {"measurement": "EC50", "result": 10, "unit": "nM"}
    ]},
    {"smiles": "O=S(=O)(CCO)c1ccc(COC[C@@H]2C[C@@H]2C2CCN(c3ncc(C4CC4)cn3)CC2)nc1", "note": "[Example 90, 2-({6-[({(1R,2R)-2-[1-(5-cyclopropylpyrimidin-2-yl)piperidin-4-yl]cyclopropyl}methoxy)methyl]pyridin-3-yl}sulfonyl)ethanol]", "values": [
      {"measurement": "EC50", "result": 23, "unit": "nM"}
    ]},
    {"smiles": "CC(=O)CSc1ccc(COC[C@@H]2C[C@@H]2C2CCN(C(=O)OC(C)(C)C)CC2)cc1", "note": "[Example 91]", "values": [
      {"measurement": "EC50", "result": 14.9, "unit": "nM"}
    ]},
    {"smiles": "CC(C)(O)CSc1ccc(COC[C@@H]2C[C@@H]2C2CCN(C(=O)OC(C)(C)C)CC2)cc1", "note": "[Example 92]", "values": [
      {"measurement": "EC50", "result": 20.3, "unit": "nM"}
    ]},
    {"smiles": "CC(O)CS(=O)(=O)c1ccc(COC[C@@H]2C[C@@H]2C2CCN(C(=O)OC(C)(C)C)CC2)cc1", "note": "(stereo partly shown) [Example 94]", "values": [
      {"measurement": "EC50", "result": 9.5, "unit": "nM"}
    ]},
    {"smiles": "CC(O)CS(=O)(=O)c1ccc(COC[C@@H]2C[C@@H]2C2CCN(c3ncc(Cl)cn3)CC2)c(F)c1", "note": "(stereo partly drawn) [Example 95, 1-({4-[({(1R,2R)-2-[1-(5-chloropyrimidin-2-yl)piperidin-4-yl]cyclopropyll}methoxy)methyl]-3-fluorophenyl}sulfonyl)propan-2-ol]", "values": [
      {"measurement": "EC50", "result": 2.4, "unit": "nM"}
    ]},
    {"smiles": "CC(O)CS(=O)(=O)c1ccc(COC[C@@H]2C[C@@H]2C2CCN(c3ncc(F)cn3)CC2)c(F)c1", "note": "(stereo partly drawn) [Example 96, 1-({4-[({(1R,2R)-2-[1-(5-fluoropyrimidin-2-yl)piperidin-4-yl]cyclopropyl}methoxy)methyl]-3-fluorophenyl}sulfonyl)propan-2-ol]", "values": [
      {"measurement": "EC50", "result": 21.9, "unit": "nM"}
    ]},
    {"smiles": "CC(O)CS(=O)(=O)c1ccc(COC[C@@H]2C[C@@H]2C2CCN(c3ncc(Br)cn3)CC2)c(F)c1", "note": "(stereo partly drawn) [Example 97, 1-({4-[({(1R,2R)-2-[1-(5-bromopyrimidin-2-yl)piperidin-4-yl]cyclopropyl}methoxy)methyl]-3-fluorophenyl}sulfonyl)propan-2-ol]", "values": [
      {"measurement": "EC50", "result": 1.6, "unit": "nM"}
    ]},
    {"smiles": "CC(O)CS(=O)(=O)c1ccc(COC[C@@H]2C[C@@H]2C2CCN(c3cnc(Cl)cn3)CC2)c(F)c1", "note": "(stereo partly drawn) [Example 98, 1-({4-[({(1R,2R)-2-[1-(5-chloropyrazin-2-yl)piperidin-4-yl]cyclopropyl}methoxy)methyl]-3-fluorophenyl}sulfonyl)propan-2-ol]", "values": [
      {"measurement": "EC50", "result": 7.3, "unit": "nM"}
    ]},
    {"smiles": "CCc1cnc(N2CCC([C@H]3C[C@H]3COCc3ccc(-c4cccnn4)cc3F)CC2)nc1", "note": "[Example 99, 3-{4-[({(1R,2R)-2-[1-(5-ethylpyrimidin-2-yl)piperidin-4-yl]cyclopropyl}methoxy)methyl]-3-fluorophenyl}pyridazine]", "values": [
      {"measurement": "EC50", "result": 0.1, "unit": "nM"}
    ]},
    {"smiles": "CCc1cnc(N2CCC([C@H]3C[C@H]3COCc3ccc(-c4ccc(C)nn4)cc3F)CC2)nc1", "note": "[Example 100, 3-{4-[({(1R,2R)-2-[1-(5-ethylpyrimidin-2-yl)piperidin-4-yl]cyclopropyl}methoxy)methyl]-3-fluorophenyl}-6-methylpyridazine]", "values": [
      {"measurement": "EC50", "result": 1, "unit": "nM"}
    ]},
    {"smiles": "CCc1cnc(N2CCC([C@H]3C[C@H]3COCc3ccc(-c4ccc(OC)nn4)cc3F)CC2)nc1", "note": "[Example 101, 3-{4-[({(1R,2R)-2-[1-(5-ethylpyrimidin-2-yl)piperidin-4-yl]cyclopropyl}methoxy)methyl]-3-fluorophenyl}-6-methoxypyridazine]", "values": [
      {"measurement": "EC50", "result": 0.8, "unit": "nM"}
    ]},
    {"smiles": "CCc1cnc(N2CCC([C@H]3C[C@H]3COCc3ccc(-c4ccnnc4)cc3F)CC2)nc1", "note": "[Example 102, 4-{4-[({(1R,2R)-2-[1-(5-ethylpyrimidin-2-yl)piperidin-4-yl]cyclopropyl}methoxy)methyl]-3-fluorophenyl}pyridazine]", "values": [
      {"measurement": "EC50", "result": 0.6, "unit": "nM"}
    ]},
    {"smiles": "CCc1cnc(N2CCC([C@H]3C[C@H]3COCc3ccc(-c4cnc(N)nc4)cc3F)CC2)nc1", "note": "[Example 103, 5-{4-[({(1R,2R)-2-[1-(5-ethylpyrimidin-2-yl)piperidin-4-yl]cyclopropyl}methoxy)methyl]-3-fluorophenyl}pyrimidin-2-amine]", "values": [
      {"measurement": "EC50", "result": 2.5, "unit": "nM"}
    ]},
    {"smiles": "CCc1cnc(N2CCC([C@H]3C[C@H]3COCc3ccc(-c4cnc(OC)nc4)cc3F)CC2)nc1", "note": "[Example 104, 5-{4-[({(1R,2R)-2-[1-(5-ethylpyrimidin-2-yl)piperidin-4-yl]cyclopropyl}methoxy)methyl]-3-fluorophenyl}-2-methoxypyrimidine]", "values": [
      {"measurement": "EC50", "result": 8.8, "unit": "nM"}
    ]},
    {"smiles": "CCc1cnc(N2CCC([C@H]3C[C@H]3COCc3ccc(-c4ccnc(N)n4)cc3F)CC2)nc1", "note": "[Example 105, 4-{4-[({(1R,2R)-2-[1-(5-ethylpyrimidin-2-yl)piperidin-4-yl]cyclopropyl}methoxy)methyl]-3-fluorophenyl}pyrimidin-2-amine]", "values": [
      {"measurement": "EC50", "result": 10.8, "unit": "nM"}
    ]},
    {"smiles": "CCc1cnc(N2CCC([C@H]3C[C@H]3COCc3ccc(-c4ccnc(OC)n4)cc3F)CC2)nc1", "note": "[Example 106, 4-{4-[({(1R,2R)-2-[1-(5-ethylpyrimidin-2-yl)piperidin-4-yl]cyclopropyl}methoxy)methyl]-3-fluorophenyl}-2-methoxypyrimidine]", "values": [
      {"measurement": "EC50", "result": 2.9, "unit": "nM"}
    ]},
    {"smiles": "CCc1cnc(N2CCC([C@H]3C[C@H]3COCc3ccc(-c4nccnc4N)cc3F)CC2)nc1", "note": "[Example 107, 2-{4-[({(1R,2R)-2-[1-(5-ethylpyrimidin-2-yl)piperidin-4-yl]cyclopropyl}methoxy)methyl]-3-fluorophenyl}pyrazin-2-amine]", "values": [
      {"measurement": "EC50", "result": 2, "unit": "nM"}
    ]},
    {"smiles": "CCc1cnc(N2CCC([C@H]3C[C@H]3COCc3ccc(-c4cncnc4)cc3F)CC2)nc1", "note": "[Example 108, 5-{4-[({(1R,2R)-2-[1-(5-ethylpyrimidin-2-yl)piperidin-4-yl]cyclopropyl}methoxy)methyl]-3-fluorophenyl}pyrimidine]", "values": [
      {"measurement": "EC50", "result": 1.1, "unit": "nM"}
    ]},
    {"smiles": "CCc1cnc(N2CCC([C@H]3C[C@H]3COCc3ccc(-c4cnccn4)cc3F)CC2)nc1", "note": "[Example 109, 2-{4-[({(1R,2R)-2-[1-(5-ethylpyrimidin-2-yl)piperidin-4-yl]cyclopropyl}methoxy)methyl]-3-fluorophenyl}pyrazine]", "values": [
      {"measurement": "EC50", "result": 2.3, "unit": "nM"}
    ]},
    {"smiles": "CCc1cnc(N2CCC([C@H]3C[C@H]3COCc3ccc(-c4ccncn4)cc3F)CC2)nc1", "note": "[Example 110, 4-{4-[({(1R,2R)-2-[1-(5-ethylpyrimidin-2-yl)piperidin-4-yl]cyclopropyl}methoxy)methyl]-3-fluorophenyl}pyrimidine]", "values": [
      {"measurement": "EC50", "result": 1.5, "unit": "nM"}
    ]},
    {"smiles": "CCc1cnc(N2CCC([C@H]3C[C@H]3COCc3ccc(-c4cnc(C)s4)cc3F)CC2)nc1", "note": "[Example 111, 5-ethyl-2-{4-[(1R,2R)-2-({[2-fluoro-4-(2-methyl-1,3-thiazol-5-yl)benzyl]oxy}methyl)cyclopropyl]piperidin-1-yl}pyrimidine]", "values": [
      {"measurement": "EC50", "result": 4, "unit": "nM"}
    ]},
    {"smiles": "CCc1cnc(N2CCC([C@H]3C[C@H]3COCc3ccc(-c4ccncn4)c(F)c3)CC2)nc1", "note": "[Example 112, 4-{4-[({(1R,2R)-2-[1-(5-ethylpyrimidin-2-yl)piperidin-4-yl]cyclopropyl}methoxy)methyl]-2-fluorophenyl}pyrimidine]", "values": [
      {"measurement": "EC50", "result": 3, "unit": "nM"}
    ]},
    {"smiles": "CCc1cnc(N2CCC([C@H]3C[C@H]3COCc3ccc(-c4cncnc4)c(F)c3)CC2)nc1", "note": "[Example 113, 5-{4-[({(1R,2R)-2-[1-(5-ethylpyrimidin-2-yl)piperidin-4-yl]cyclopropyl}methoxy)methyl]-2-fluorophenyl}pyrimidine]", "values": [
      {"measurement": "EC50", "result": 2, "unit": "nM"}
    ]},
    {"smiles": "CCc1cnc(N2CCC([C@H]3C[C@H]3COCc3ccc(-c4cccnn4)c(F)c3)CC2)nc1", "note": "[Example 114, 3-{4-[({(1R,2R)-2-[1-(5-ethylpyrimidin-2-yl)piperidin-4-yl]cyclopropyl}methoxy)methyl]-2-fluorophenyl}pyridazine]", "values": [
      {"measurement": "EC50", "result": 3, "unit": "nM"}
    ]},
    {"smiles": "CCc1cnc(N2CCC([C@H]3C[C@H]3COCc3ccc(-c4ccnnc4)c(F)c3)CC2)nc1", "note": "[Example 115, 4-{4-[({(1R,2R)-2-[1-(5-ethylpyrimidin-2-yl)piperidin-4-yl]cyclopropyl}methoxy)methyl]-2-fluorophenyl}pyridazine]", "values": [
      {"measurement": "EC50", "result": 1, "unit": "nM"}
    ]}
  ]
}
